Measured values: PMC8385029 (Scientific Reports, 2021)

T1: SyAcnB (Synechocystis sp. PCC 6803 aconitase B) (Synechocystis sp. PCC 6803, UniProt P74582)
T1 construct: gene acnB; full-length, synthetic gene in pGEX6P-1 (BamHI-XhoI), GST tag (elution with glutathione, no cleavage described), E. coli DH5alpha
T1 sequence (P74582 1-868): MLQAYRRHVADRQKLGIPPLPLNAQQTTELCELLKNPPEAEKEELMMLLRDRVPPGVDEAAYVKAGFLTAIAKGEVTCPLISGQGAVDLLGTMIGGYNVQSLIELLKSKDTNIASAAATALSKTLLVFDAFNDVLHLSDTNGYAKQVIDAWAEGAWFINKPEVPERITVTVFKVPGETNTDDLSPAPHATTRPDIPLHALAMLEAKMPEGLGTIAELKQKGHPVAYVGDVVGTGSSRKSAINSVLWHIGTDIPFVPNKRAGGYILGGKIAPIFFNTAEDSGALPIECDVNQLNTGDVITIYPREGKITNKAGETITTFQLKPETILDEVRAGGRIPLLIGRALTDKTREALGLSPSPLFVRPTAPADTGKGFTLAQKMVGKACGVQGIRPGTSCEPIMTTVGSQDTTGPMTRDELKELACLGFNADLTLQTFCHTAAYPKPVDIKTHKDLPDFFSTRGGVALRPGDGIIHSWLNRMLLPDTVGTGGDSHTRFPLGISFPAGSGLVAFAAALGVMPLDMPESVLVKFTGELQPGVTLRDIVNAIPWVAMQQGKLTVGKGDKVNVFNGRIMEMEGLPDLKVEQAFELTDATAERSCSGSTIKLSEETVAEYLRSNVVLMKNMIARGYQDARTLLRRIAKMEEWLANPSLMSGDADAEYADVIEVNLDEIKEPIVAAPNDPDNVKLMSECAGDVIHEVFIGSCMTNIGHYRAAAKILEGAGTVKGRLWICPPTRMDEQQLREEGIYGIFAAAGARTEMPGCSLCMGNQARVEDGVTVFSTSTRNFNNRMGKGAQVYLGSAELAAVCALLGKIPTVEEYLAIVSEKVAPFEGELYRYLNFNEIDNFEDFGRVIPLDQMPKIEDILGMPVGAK

B1: SyAcnB (Synechocystis sp. PCC 6803 aconitase B) (Synechocystis sp. PCC 6803 substr. Kazusa) (protein)
chain: MLQAYRRHVADRQKLGIPPLPLNAQQTTELCELLKNPPEAEKEELMMLLRDRVPPGVDEAAYVKAGFLTAIAKGEVTCPLISGQGAVDLLGTMIGGYNVQSLIELLKSKDTNIASAAATALSKTLLVFDAFNDVLHLSDTNGYAKQVIDAWAEGAWFINKPEVPERITVTVFKVPGETNTDDLSPAPHATTRPDIPLHALAMLEAKMPEGLGTIAELKQKGHPVAYVGDVVGTGSSRKSAINSVLWHIGTDIPFVPNKRAGGYILGGKIAPIFFNTAEDSGALPIECDVNQLNTGDVITIYPREGKITNKAGETITTFQLKPETILDEVRAGGRIPLLIGRALTDKTREALGLSPSPLFVRPTAPADTGKGFTLAQKMVGKACGVQGIRPGTSCEPIMTTVGSQDTTGPMTRDELKELACLGFNADLTLQTFCHTAAYPKPVDIKTHKDLPDFFSTRGGVALRPGDGIIHSWLNRMLLPDTVGTGGDSHTRFPLGISFPAGSGLVAFAAALGVMPLDMPESVLVKFTGELQPGVTLRDIVNAIPWVAMQQGKLTVGKGDKVNVFNGRIMEMEGLPDLKVEQAFELTDATAERSCSGSTIKLSEETVAEYLRSNVVLMKNMIARGYQDARTLLRRIAKMEEWLANPSLMSGDADAEYADVIEVNLDEIKEPIVAAPNDPDNVKLMSECAGDVIHEVFIGSCMTNIGHYRAAAKILEGAGTVKGRLWICPPTRMDEQQLREEGIYGIFAAAGARTEMPGCSLCMGNQARVEDGVTVFSTSTRNFNNRMGKGAQVYLGSAELAAVCALLGKIPTVEEYLAIVSEKVAPFEGELYRYLNFNEIDNFEDFGRVIPLDQMPKIEDILGMPVGAK
notes: full-length, synthetic gene in pGEX6P-1 (BamHI-XhoI), GST tag (elution with glutathione, no cleavage described), E. coli DH5alpha

Key:
[1] = biological target: T1, SyAcnB (Synechocystis sp. PCC 6803 aconitase B); assay: cis-aconitate formation, A240; type: biochemical; conditions: read-out: % residual activity at 5 mM
[2] = substrate: O=C(O)CC(C(=O)O)C(O)C(=O)O; assay: cis-aconitate formation, A240; type: biochemical, Synechocystis sp. PCC 6803; conditions: Tris-HCl pH 8.0, 53 °C; reactivated holo-enzyme; DL-isocitrate used
[3] = substrate: O=C(O)CC(O)(CC(=O)O)C(=O)O; assay: purified protein; conditions: Tris-HCl pH 7.7, 45 °C; reactivated holo-enzyme

Molecule | remaining activity at 5000 µM [1] | also measured
O=C(O)CCC(=O)C(=O)O [2-OG] | 72% | –
N[C@@H](CC(=O)O)C(=O)O [L-aspartate] | 84% | –
N[C@@H](CCC(=O)O)C(=O)O [L-glutamate] | 85% | –
NC(=O)CC[C@H](N)C(=O)O [L-glutamine] | 81% | –
CC(=O)C(=O)O [pyruvate] | 69% | –
B1 | – | Km [2]: 1540 ± 170 µM; kcat [2]: 16.67 ± 0.34 s⁻¹; Km [3]: 1130 ± 40 µM; kcat [3]: 9.12 ± 0.14 s⁻¹
